Measured values from the supplement of paper PMC13207355.

What was measured:
Conditions in all cases: exposure time: 72 h
[1] = tested on: E57 (patient-derived glioblastoma stem cells of mesenchymal subtype); assay: surviving fraction (nuclei count normalised to DMSO); higher = more cells surviving (less toxic)
[2] = tested on: E28 (patient-derived glioblastoma stem cells of classical subtype); assay: as above
[3] = tested on: E31 (patient-derived glioblastoma stem cells of proneural subtype); assay: as above
[4] = tested on: FT3469 (normal neural stem cell line); assay: as above
[5] = tested on: E21 (patient-derived glioblastoma stem cells of mesenchymal subtype); assay: as above
[6] = tested on: E34 (patient-derived glioblastoma stem cells of proneural subtype); assay: as above
[7] = tested on: E13 (patient-derived glioblastoma stem cells of classical subtype); assay: as above
[8] = tested on: E57; assay: phenotypic distance (Euclidean, principal components) from DMSO controls (arbitrary units); higher = stronger morphological change
[9] = tested on: E28; assay: as above
[10] = tested on: E31; assay: as above
[11] = tested on: FT3469; assay: as above
[12] = tested on: E21; assay: as above
[13] = tested on: E34; assay: as above
[14] = tested on: E13; assay: as above
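Throughout, for phenotypic distance (Euclidean, principal components) from DMSO controls: cell Painting imaging in 384-well plates, CellProfiler features reduced to at least 20 principal components, Euclidean distance versus same-plate DMSO vehicle wells (0.1% v/v), median over six images per well.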
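Throughout, for surviving fraction (nuclei count normalised to DMSO): nuclei counted by high-content imaging of Hoechst-stained cells in laminin-coated 384-well plates, relative to 0.1% DMSO vehicle wells, with staurosporine as cell-death control.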

C/C(=C\c1csc(C)n1)[C@@H]1C[C@@H]2O[C@]2(C)CCC[C@H](C)[C@H](O)[C@@H](C)C(=O)C(C)(C)[C@@H](O)CC(=O)N1 [Ixabepilone]
Conditions | phenotypic distance | surviving fraction
[1], 4.1 nM | – | 0.172
[1], 12.3 nM | – | 0.152
[1], 37 nM | – | 0.128
[1], 111.1 nM | – | 0.0952
[1], 333.3 nM | – | 0.0774
[1], 1000 nM | – | 0.0873
[1], 3000 nM | – | 0.0627
[2], 4.1 nM | – | 0.611
[2], 12.3 nM | – | 0.6
[2], 37 nM | – | 0.431
[2], 111.1 nM | – | 0.464
[2], 333.3 nM | – | 0.345
[2], 1000 nM | – | 0.404
[2], 3000 nM | – | 0.237
[3], 4.1 nM | – | 0.269
[3], 12.3 nM | – | 0.261
[3], 37 nM | – | 0.172
[3], 111.1 nM | – | 0.149
[3], 333.3 nM | – | 0.137
[3], 1000 nM | – | 0.208
[3], 3000 nM | – | 0.157
[4], 4.1 nM | – | 0.574
[4], 12.3 nM | – | 0.624
[4], 37 nM | – | 0.63
[4], 111.1 nM | – | 0.677
[4], 333.3 nM | – | 0.521
[4], 1000 nM | – | 0.716
[4], 3000 nM | – | 0.548
[5], 4.1 nM | – | 0.229
[5], 12.3 nM | – | 0.256
[5], 37 nM | – | 0.211
[5], 111.1 nM | – | 0.245
[5], 333.3 nM | – | 0.286
[5], 1000 nM | – | 0.259
[5], 3000 nM | – | 0.243
[6], 4.1 nM | – | 0.609
[6], 12.3 nM | – | 0.672
[6], 37 nM | – | 0.582
[6], 111.1 nM | – | 0.531
[6], 333.3 nM | – | 0.465
[6], 1000 nM | – | 0.421
[6], 3000 nM | – | 0.331
[7], 4.1 nM | – | 0.341
[7], 12.3 nM | – | 0.286
[7], 37 nM | – | 0.271
[7], 111.1 nM | – | 0.193
[7], 333.3 nM | – | 0.21
[7], 1000 nM | – | 0.193
[7], 3000 nM | – | 0.175
[8], 4.1 nM | 6.02 | –
[8], 12.3 nM | 5.51 | –
[8], 37 nM | 5.64 | –
[8], 111.1 nM | 5.48 | –
[8], 333.3 nM | 7.37 | –
[8], 1000 nM | 6.58 | –
[8], 3000 nM | 6.89 | –
[9], 4.1 nM | 2.8 | –
[9], 12.3 nM | 2.1 | –
[9], 37 nM | 3.6 | –
[9], 111.1 nM | 4.12 | –
[9], 333.3 nM | 4.09 | –
[9], 1000 nM | 3.46 | –
[9], 3000 nM | 4.61 | –
[10], 4.1 nM | 2.61 | –
[10], 12.3 nM | 3.43 | –
[10], 37 nM | 3.83 | –
[10], 111.1 nM | 4.57 | –
[10], 333.3 nM | 4.48 | –
[10], 1000 nM | 4.78 | –
[10], 3000 nM | 4.08 | –
[11], 4.1 nM | 2.99 | –
[11], 12.3 nM | 3.28 | –
[11], 37 nM | 4.81 | –
[11], 111.1 nM | 3.58 | –
[11], 333.3 nM | 3.51 | –
[11], 1000 nM | 4.06 | –
[11], 3000 nM | 4.05 | –
[12], 4.1 nM | 6.26 | –
[12], 12.3 nM | 5.66 | –
[12], 37 nM | 6.8 | –
[12], 111.1 nM | 5.59 | –
[12], 333.3 nM | 6.55 | –
[12], 1000 nM | 6.74 | –
[12], 3000 nM | 6.15 | –
[13], 4.1 nM | 2.35 | –
[13], 12.3 nM | 2.42 | –
[13], 37 nM | 2.65 | –
[13], 111.1 nM | 3.43 | –
[13], 333.3 nM | 3.13 | –
[13], 1000 nM | 3.44 | –
[13], 3000 nM | 4.33 | –
[14], 4.1 nM | 4.32 | –
[14], 12.3 nM | 5.35 | –
[14], 37 nM | 4.56 | –
[14], 111.1 nM | 5.86 | –
[14], 333.3 nM | 5.9 | –
[14], 1000 nM | 6.44 | –
[14], 3000 nM | 6.86 | –
